IC50 data for 25 compounds are collected here from patent US4820836A, “Prostacyclin (PGI2) analogues” (Shionogi & Co., Ltd., priority 1986, dated 1989).

Where two headings read alike, the source gives them in different places.

The test relates to Platelet Agglutination. The test is described as follows: In vitro inhibition of platelet agglutination (rabbit platelet rich plasma, aggregometer) induced by arachidonic acid, collagen or ADP. The format is cell-based. As to conditions: Oryctolagus cuniculus, rabbit PRP. As to the method:
The inhibitory activity of the representative compounds of the present invention against platelet agglutination is shown in the following in vitro test.
Mature male rabbits (NIBS-JW, RABITON Institute Inc., weighing 2.2-2.7 kg) were used. Under sodium pentobarbital anesthesia (Somnopentyl, Pitman Movre, about 25 mg/Kg, i.v.), blood was with from the carotid artery by cannulation into centrifuge tubes containg 1/10 vol of a 3.8% sodium citrate solution. (The total volume in each tube was adjusted to 8 ml.) The blood in a tube was gentyl mixed by turing and centrifuged for 10 minutes at 210 g at 20° C. to give platelet rich plasma (PRP). The remaining blood was further centrifuged at 3,000 rpm (about 1,900 g) for 10 minutes at 20° C. to give platelet-poor plasma (PPP).
PRP was diluted with PPP to prepare a blood sample whose platelet number was 50-55×10^4 /μl. The sample was then subjected to a platelet agglutination test.
The platelet agglutination was examined by the method of Bron [Born, G.V.R., Nature, 194, 927-929 (1962)], using a Type AUTO RAM-61 aggregometer, (Rika Denki Co., Ltd., Tokyo). A volume of 400 μl of PRP, whose platelet number was adjusted to 50-55×10^4 /μl, was placed in a measuring cuvette and set in the aggregometer. PRP was warmed at 37° C. for 1 minute with stirring at 1,200 rpm, and then a solution of the test compound [dimethylsulfoxide solution (2 μl) of the compound+saline (48 μl); in case of prostaglandin I2 (PGI2) and prostaglandin E1 (PG E1), a solution of each compound (50 μl) in Tris buffer] was added thereto. Exactly 2 minutes later, 50 μl of ADP Pharmacia, U.S.A., (final concentration: 30 μM) or collagen (final muchen, muchen, concentration: 20 μg/ml) or arachidonic acid (sodium salt, Sigma, final concentration (500 μM) was added as a platelet agglutinating agent, and the change in light transmission caused by platelet agglutination was recorded.
The light transmissions of PRP and PPP were taken as 0% and 100% agglutination, respectively, and the maximum light transmission after addition of an agglutinating agent was made to the maxiumum agglutination. The inhibition rate of the platelet agglutination was expressed as the percentage of the maximum agglutination by a test compound to that by a control (Vehicle added group).
Prostaglandin (PG) I2 and E1 are served as standard substances.

Setting [1] is: ADP, final 30 μM, 37° C., compound in dimethylsulfoxide+saline, read-out: Inhibition Activity against Platelet Agglutination [50% Inhibition Concentration (μM)], ADP.
Where [2] appears, read: arachidonic acid, final 500 μM, 37° C., compound in dimethylsulfoxide+saline, read-out: Inhibition Activity against Platelet Agglutination [50% Inhibition Concentration (μM)], Arachidonic acid.
The mark [3] stands for this setting: collagen, final 20 μg/ml, 37° C., compound in dimethylsulfoxide+saline, read-out: Inhibition Activity against Platelet Agglutination [50% Inhibition Concentration (μM)], Collagen.

As for `C#C[C@]12C[C@@H](O)[C@H](/C=C/[C@H](O)C(C)CCCC)[C@H]1CC(SCCCC(=O)OCC)=N2` (stereo partly drawn) [17(R)g-b], the IC50 under setting [1] amounted to 2.06 µM, the IC50 under setting [2] came to 1.55 µM and the IC50 under setting [3] amounted to 0.54 µM.

As for `C#C[C@]12C[C@@H](O)[C@H](/C=C/[C@H](O)C(C)CC#CC)[C@H]1CC(SCCCC(=O)OCC)=N2` (stereo partly drawn) [17(R)g-d], the IC50 stood at 8.43 µM under setting [1], 11.7 µM under setting [2] and 4 µM under setting [3].

Take `C#C[C@]12C[C@@H](O)[C@H](/C=C/[C@H](O)C3CCCCC3)[C@H]1CC(SCCCC(=O)OCC)=N2` [17(R)g-e]: the IC50 under setting [1] is 13.4 µM, the IC50 under setting [2] came to 60.6 µM and the IC50 under setting [3] amounted to 3 µM.

Take `C=C[C@]12C[C@@H](O)[C@H](/C=C/[C@H](O)C(C)CC#CC)[C@H]1CC(SCCCC(=O)OCC)=N2` (stereo partly drawn) [17(R)l-d]: the IC50 is, setting by setting: under setting [1], 55 µM; under setting [2], 118 µM; under setting [3], 23 µM.

Turning to `C=C[C@]12C[C@@H](O)[C@H](/C=C/[C@H](O)C3CCCC3)[C@H]1CC(SCCCC(=O)OCC)=N2` [17(R)l-f], the IC50 is, setting by setting: under setting [1], 142 µM; under setting [2], 443 µM; under setting [3], 54 µM.

For the compound `CCCCC[C@H](O)/C=C/[C@H]1[C@H](O)C[C@]2(Sc3ccccc3)N=C(SCCCC(=O)OCC)C[C@H]12` [17(S)a, ethyl 4-[7-hydroxy-6-[(3S)-3-hydroxy-1-octenyl]-1-phenylthio-2-azabicyclo[3.3.0]oct-2-en-3-yl]thiobutanoate], the IC50 reads like this: under setting [1], 16 µM; under setting [2], 21 µM; under setting [3], 8 µM.

Regarding `CCCCC[C@H](O)/C=C/[C@H]1[C@H](O)C[C@]2(OC)N=C(SCCCC(=O)OCC)C[C@H]12` [17(S)b], the IC50 is, setting by setting: under setting [1], 15 µM; under setting [2], 16 µM; under setting [3], 7 µM.

Consider `CCCCC[C@H](O)/C=C/[C@H]1[C@H](O)C[C@]2(CC)N=C(SCCCC(=O)OCC)C[C@H]12` [17(S)d], for which the IC50 by setting is: under setting [1], 18 µM; under setting [2], 160 µM; under setting [3], 9 µM.

On to `CCCCC[C@H](O)/C=C/[C@H]1[C@H](O)C[C@]2(C)N=C(SCCCC(=O)OCC)C[C@H]12` [17(S)e], for which the IC50 is, setting by setting: under setting [1], 1.6 µM; under setting [2], 4.4 µM; under setting [3], 0.6 µM.

Consider `C#C[C@]12C[C@@H](O)[C@H](/C=C/[C@@H](O)CCCCC)[C@H]1CC(SCCCC(=O)OCC)=N2` [17(S)g, ethyl 4-[1-ethynyl-7-hydroxy-6-[(3S)-3-hydroxy-1-octenyl]-2-azabicyclo[3.3.0]oct-2-en-3-yl]thiobutanoate], for which the IC50 is, setting by setting: under setting [1], 0.011 µM; under setting [2], 0.02 µM; under setting [3], 0.006 µM.

On to `C#C[C@]12C[C@@H](O)[C@H](/C=C/[C@@H](O)C(C)CCCC)[C@H]1CC(SCCCC(=O)OCC)=N2` (stereo partly drawn) [17(S)g-b], for which the IC50 is, setting by setting: under setting [1], 0.0066 µM; under setting [2], 0.012 µM; under setting [3], 0.0013 µM.

In the case of `C#C[C@]12C[C@@H](O)[C@H](/C=C/[C@@H](O)C(C)CC#CC)[C@H]1CC(SCCCC(=O)OCC)=N2` (stereo partly drawn) [17(S)g-d], the IC50 under setting [1] amounted to 0.014 µM, the IC50 under setting [2] stood at 0.018 µM and the IC50 under setting [3] worked out at 0.0042 µM.

Turning to `C#C[C@]12C[C@@H](O)[C@H](/C=C/[C@@H](O)C3CCCCC3)[C@H]1CC(SCCCC(=O)OCC)=N2` [17(S)g-e], the IC50 reads like this: under setting [1], 0.033 µM; under setting [2], 0.146 µM; under setting [3], 0.0094 µM.

Turning to `CC#C[C@]12C[C@@H](O)[C@H](/C=C/[C@@H](O)CCCCC)[C@H]1CC(SCCCC(=O)OCC)=N2` [17(S)h], the IC50 runs as follows: under setting [1], 0.006 µM; under setting [2], 0.01 µM; under setting [3], 0.0013 µM.

For `CCCCC[C@H](O)/C=C/[C@H]1[C@H](O)C[C@]2(C#Cc3ccccc3)N=C(SCCCC(=O)OCC)C[C@H]12` [17(S)i], the IC50 reads like this: under setting [1], 5 µM; under setting [2], 44 µM; under setting [3], 0.45 µM.

For the compound `C#CC#C[C@]12C[C@@H](O)[C@H](/C=C/[C@@H](O)CCCCC)[C@H]1CC(SCCCC(=O)OCC)=N2` [17(S)k, ethyl 4-[1-(1,3-butadiynyl)-7-hydroxy-6-[(3S)-3-hydroxy-1-octenyl]-2-azabicycl[3.3.0]oct-2-en-3-yl]thiobutanoate], the IC50 amounted to 0.27 µM under setting [1], 0.74 µM under setting [2] and 0.053 µM under setting [3].

`C=C[C@]12C[C@@H](O)[C@H](/C=C/[C@@H](O)CCCCC)[C@H]1CC(SCCCC(=O)OCC)=N2` [17(S)l, ethyl 4-[1-ethenyl-7-hydroxy-6[(3S)-3-hydroxy-1-octenyl]-2-azabicyclo[3.3.0]oct-2-en-3-yl]thiobutanoate]: the IC50 came out at 0.42 µM under setting [1], 0.7 µM under setting [2] and 0.1 µM under setting [3].

In the case of `C=C[C@]12C[C@@H](O)[C@H](/C=C/[C@@H](O)C(C)CC#CC)[C@H]1CC(SCCCC(=O)OCC)=N2` (stereo partly drawn) [17(S)l-d], the IC50 came out at 0.13 µM under setting [1], 0.36 µM under setting [2] and 0.048 µM under setting [3].

On to `C=C[C@]12C[C@@H](O)[C@H](/C=C/[C@@H](O)C3CCCC3)[C@H]1CC(SCCCC(=O)OCC)=N2` [17(S)l-f], for which the IC50 runs as follows: under setting [1], 0.3 µM; under setting [2], 1.2 µM; under setting [3], 0.12 µM.

Turning to `CCCCC[C@H](O)/C=C/[C@H]1[C@H](O)C[C@]2(C#N)N=C(SCCCC(=O)OCC)C[C@H]12` [17(S)m, ethyl 4-[1-cyano-7-hydroxy-6-[(3S)-3-hydroxy-1-octenyl]-2-azabicyclo[3.3.0]oct-2-en-3-yl]thiobutanoate], the IC50 runs as follows: under setting [1], 0.167 µM; under setting [2], 0.332 µM; under setting [3], 0.044 µM.

For `C#C[C@]12C[C@@H](O)[C@H](/C=C/[C@@H](O)CCCCC)[C@H]1CC(SCCCC(=O)OC)=N2` [18(S)g, methyl 4-[1-ethynyl-7-hydroxy-6-[(3S)-3-hydroxy-1-octenyl]-2-azabicyclo[3.3.0]oct-2-en-3-yl]thiobutanoate], the IC50 came out at 0.0241 µM under setting [1], 0.081 µM under setting [2] and 0.011 µM under setting [3].

With `C#C[C@]12C[C@@H](O)[C@H](/C=C/[C@@H](O)CCCCC)[C@H]1CC(SCCCC(=O)O)=N2` [19(S)g, Sodium 4-[1-ethynyl-7-hydroxy-6-[(3S)-3-hydroxy-1-octenyl]-2-azabicyclo[3.3.0]oct-2-en-3-yl]thiobutanoate], the IC50 reads like this: under setting [1], 0.0049 µM; under setting [2], 0.0093 µM; under setting [3], 0.0093 µM.

Consider `CC#C[C@]12C[C@@H](O)[C@H](/C=C/[C@@H](O)CCCCC)[C@H]1CC(SCCCC(=O)O)=N2` [19(S)h, sodium 4-[7-hydroxy-6-[(3S)-3-hydroxy-1-octenyl]-1-(1-propynyl)-2-azabicyclo[3.3.0]oct-2-en-3-yl]thiobutanoate], for which the IC50 under setting [1] was found to be 0.0042 µM, the IC50 under setting [2] turned out to be 0.0035 µM and the IC50 under setting [3] was 0.0028 µM.

`CCCCC[C@H](O)/C=C/[C@@H]1[C@H]2CC(SCCCC(=O)OC)=N[C@H]2C[C@H]1O` [Compound 18c, reference compound]: the IC50 reads like this: under setting [1], 0.074 µM; under setting [2], 0.16 µM; under setting [3], 0.062 µM.

In the case of `CCCCC[C@H](O)/C=C/[C@H]1[C@H](O)CC(=O)[C@@H]1CCCCCCC(=O)O` [PGE1, prostaglandin E1, reference compound], the IC50 came out at 0.066 µM (pH 7.4, ADP, final 30 μM, Tris buffer, pH7.4, read-out: Inhibition Activity against Platelet Agglutination [50% Inhibition Concentration (μM)], ADP); 0.25 µM (pH 7.4, arachidonic acid, final 500 μM, Tris buffer, pH7.4, read-out: Inhibition Activity against Platelet Agglutination [50% Inhibition Concentration (μM)], Arachidonic acid); 0.052 µM (pH 7.4, collagen, final 20 μg/ml, Tris buffer, pH7.4, read-out: Inhibition Activity against Platelet Agglutination [50% Inhibition Concentration (μM)], Collagen).
